From patent US5232684A, “Labelled resiniferatoxin, compositions thereof, and methods for using the same” (priority 1990, dated 1993)
Entries after “also recorded” stand apart in the source; their conditions may differ. Where two headings read alike, the source gives them in different places.

Legend:
[1] = biological target: T1, capsaicin receptor (pig DRG membranes) (Sus scrofa, UniProt F1RLJ0); experiment: biochemical; assay type: binding; settings: for inhibition of [^3H]RTX binding: 30 uM; for inhibition of / competition for [^3H]RTX binding (words): biologically effective concentrations, Table 1, 10 μM, 10 µM; for inhibition of specific [^3H]RTX binding: Table 1, 200 nM or 2 μM
T1 construct: tissue Mt; Airy Locker Co., Mt; Airy, MD; host or cells: pig dorsal root ganglia
T1 sequence (F1RLJ0 1-841): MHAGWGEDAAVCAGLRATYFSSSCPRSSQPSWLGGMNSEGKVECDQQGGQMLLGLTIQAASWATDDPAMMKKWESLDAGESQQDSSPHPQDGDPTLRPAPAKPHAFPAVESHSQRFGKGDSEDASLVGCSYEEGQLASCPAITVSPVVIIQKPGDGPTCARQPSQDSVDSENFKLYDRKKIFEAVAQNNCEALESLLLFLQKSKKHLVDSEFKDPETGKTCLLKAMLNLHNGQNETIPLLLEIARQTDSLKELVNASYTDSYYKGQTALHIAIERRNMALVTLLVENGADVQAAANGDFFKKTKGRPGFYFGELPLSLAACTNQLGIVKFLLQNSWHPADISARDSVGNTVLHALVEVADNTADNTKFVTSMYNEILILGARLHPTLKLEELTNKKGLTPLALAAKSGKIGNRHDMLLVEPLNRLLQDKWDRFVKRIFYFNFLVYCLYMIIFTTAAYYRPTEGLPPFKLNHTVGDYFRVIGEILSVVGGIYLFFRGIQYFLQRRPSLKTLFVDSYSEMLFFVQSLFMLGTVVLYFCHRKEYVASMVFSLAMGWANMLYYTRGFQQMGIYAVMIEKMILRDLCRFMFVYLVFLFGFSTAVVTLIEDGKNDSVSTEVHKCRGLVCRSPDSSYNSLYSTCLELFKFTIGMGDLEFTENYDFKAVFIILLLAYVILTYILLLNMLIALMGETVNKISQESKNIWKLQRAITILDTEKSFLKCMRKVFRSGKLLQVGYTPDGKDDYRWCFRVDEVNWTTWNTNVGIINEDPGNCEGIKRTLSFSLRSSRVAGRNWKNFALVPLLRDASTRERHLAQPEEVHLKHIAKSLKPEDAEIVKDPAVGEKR
Protocol: (§1) Membrane preparations are obtained from the DRG and Gasser ganglia of female Sprague-Dawley rats (250-300 g); animals are sacrificed by decapitation under ether anesthesia, the ganglia removed and collected into ice-cold disrupting buffer (5 mM KCl, 5.8 mM NaCl, 2 mM MgCl2, 12 mM glucose, 137 mM sucrose, 10 mM HEPES, 5 mM DTT, 2 mM EGTA, pH 7.4). After homogenization with the aid of a Polytron tissue homogenizer, samples are filtered over surgical gauze and then washed twice with the same buffer and stored at -70° C. Particulate fractions are obtained from other rat neural tissues (cerebellum, spinal cord, preoptic region, striatum, substantia nigra) and from DRG of pigs (Mt. Airy Locker Co., Mt. Airy, MD), sheep, cows (kindly provided by Dr. Solomon, USDA, Beltsville, MD), and chickens (Truslow Farms, Chesterton, MD) by a similar procedure.
Subcellular fractions are prepared by a modification of the method of Bastiaensen et al. (Bastiaensen, E., Miserez, B. and De Potter, W., Subcellular fractionation of bovine ganglion stellatum: co-storage of noradrenaline, Met-enkephalin and neuropeptide Y in large `dense-cored` vesicles, Brain Res., 442 (1988) 124-130. ) Briefly: DRG are dissected free from capsule, cut into small pieces with scissors, and then homogenized with a teflon pestle (20 strokes) in ice-cold 0.25 M sucrose/ 20 mM Tris-Cl (pH 7.4) buffer. The homogenate is filtered over surgical gauze; it is then centrifuged for 10 min at 2000 gmax, giving a pellet P1, and again at 10 000 gmax for 15 min giving a pellet P2. The P1 and P2 pellets are saved as nuclear and mitochondrial fractions for binding studies. The resulting supernatant is further centrifuged at 50 000 gmax for 60 min, and then the pellet is harvested as the plasma-membrane enriched microsomal fraction.
(§2) The binding assays are carried out in a volume of 250 ul, containing assay buffer (same as the disrupting buffer but omitting DTT and EGTA and including 0.75 mM CaCl2), 26-30 ug of membrane protein and 0.25 mg/ml bovine serum albumin. […] Tubes are kept on ice while the additions are made. The assay mixture is incubated for 10 min at 37° C.; it is then cooled on ice. 150 ul of the mixture is pipetted onto Whatman GF/C or GF/F glass fiber filters presoaked with 10 mg/ml bovine serum albumin in 20 mM Tris-Cl (pH 7.4) and filtered immediately. An aliquot of 50 ul of the mixture is removed to determine total radioactivity. The filters are washed with 100 ml of ice-cold 20 mM Tris-Cl, pH 7 4, containing 0.1 mg/ml bovine serum albumin, and the bound radioactivity is determined by scintillation counting. Non-specific binding is determined in the presence of 100-1000 nM non-radioactive RTX.
(§3) Binding data from saturation experiments using increasing concentrations of hot ligand are analyzed using the collection of computer programs described by McPherson (McPherson, G.A., Analysis of radioligand binding experiments: a collection of computer programs for the IBM PC, J.Pharmacol.Methods, 14 (1985) 213-228).
(§4) Scatchard and Hill transformations are performed by the Equilibrium Binding Data Analysis program referred to as EBDA. Data are further analyzed by the curvilinear regression program LIGAND (Munson, R.J. and Rodbard, D., LIGAND: a versatile computerized approach for characterization of ligand-binding systems, Anal.Biochem, 107 (1980) 220-239).
RTX binding is also analyzed in the presence of a fixed, low (60 pM or 300 pM) concentration of [^3 H]RTX and increasing concentrations of non-radioactive RTX or other ligand.

[2] = biological target: T2, capsaicin receptor (rat Gasser ganglia) (Rattus norvegicus, UniProt O35433); experiment: biochemical; assay type: binding; settings: for activity at 30 µM: read-out: % of specific [^3H]RTX binding measured in the absence of the tested compound ± SEM
T2 construct: from tissue; host or cells: Gasser ganglia of female Sprague-Dawley rats
T2 sequence (O35433 whole entry): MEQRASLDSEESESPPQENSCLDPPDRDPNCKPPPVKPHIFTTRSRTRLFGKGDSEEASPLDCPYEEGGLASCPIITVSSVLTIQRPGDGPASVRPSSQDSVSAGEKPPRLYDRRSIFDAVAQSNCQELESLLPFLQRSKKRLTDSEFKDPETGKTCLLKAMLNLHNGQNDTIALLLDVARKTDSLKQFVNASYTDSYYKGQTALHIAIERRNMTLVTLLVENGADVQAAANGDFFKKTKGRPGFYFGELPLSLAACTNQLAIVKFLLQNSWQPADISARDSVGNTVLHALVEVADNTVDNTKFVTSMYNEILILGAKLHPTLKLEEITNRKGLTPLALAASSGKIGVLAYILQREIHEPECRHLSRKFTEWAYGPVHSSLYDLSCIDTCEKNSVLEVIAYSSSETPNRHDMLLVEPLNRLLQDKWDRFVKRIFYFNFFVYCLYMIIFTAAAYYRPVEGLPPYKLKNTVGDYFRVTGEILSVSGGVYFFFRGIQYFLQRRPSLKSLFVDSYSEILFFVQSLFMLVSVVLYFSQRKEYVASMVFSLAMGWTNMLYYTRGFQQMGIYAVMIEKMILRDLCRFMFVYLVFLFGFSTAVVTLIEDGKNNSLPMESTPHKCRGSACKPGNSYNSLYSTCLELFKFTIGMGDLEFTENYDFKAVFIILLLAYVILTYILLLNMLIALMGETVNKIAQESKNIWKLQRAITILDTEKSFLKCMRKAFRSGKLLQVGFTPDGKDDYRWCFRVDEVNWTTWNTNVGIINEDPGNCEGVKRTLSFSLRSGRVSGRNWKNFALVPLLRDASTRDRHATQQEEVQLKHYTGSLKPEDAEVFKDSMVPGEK
Protocol: as §1, §2, §3, §4
(§5) RTX binding is also analyzed in the presence of a fixed, low (60 pM or 300 pM) concentration of [^3 H]RTX and increasing concentrations of non-radioactive RTX or other ligand. […] The Ki value for RTX is calculated from the relationship Ki =ID50 -L; the Ki values for other ligands are calculated from the general form of the equation (Cheng, Y.C. and Prusoff, W.H., Relation between the inhibition constant (Ki) and the concentration of inhibitor which causes 50 per cent inhibition (I50) of an enzymatic reaction, Biochem. Pharmacol., 22 (1973) 3099-3108) Ki =IC50 /(1+L/Kd) where L=concentration of labelled ligand and Kd =dissociation constant of radioactive ligand as determined in the saturation experiments using variable concentrations of hot ligand. Comparison of the quality of fit using single and multiple site competition models is performed by the LIGAND program.
Gasser ganglia represents the […] homolog of the dorsal root ganglia.

[3] = biological target: T3, capsaicin receptor (rat DRG membranes) (Rattus norvegicus, UniProt O35433); experiment: biochemical; assay type: binding; settings: for activity at 0.2 µM: 10 min, read-out: % of specific [^3H]RTX binding measured in the absence of the tested compound ± SEM
T3 construct: membrane preparations from dorsal root ganglia (DRG) of female Sprague-Dawley rats; from tissue; host or cells: dorsal root ganglia of female Sprague-Dawley rats
T3 sequence (O35433 whole entry): as above
Protocol: as §1, §2, §3, §4, §5
[^3 H]RTX binding is examined using membrane preparations from dorsal root ganglia (DRG) of female Sprague-Dawley rats.

[4] = test system: protein kinase C; experiment: [^3H]phorbol 12,13-dibutyrate binding, rat DRG membranes
Text: The side chain at C20 is essential for the capsaicin-like 25 activity of RTX (Szallasi, A., Sharkey, N.A. and Blumberg, P.M., Structure-activity analysis of resiniferatoxin analogs, Phytotherapy Res., 6: 253-257, 1990).

[5] = test system: rats; settings: 300 ug/kg RTX s.c.; cited from earlier work
[6] = RTX versus capsaicin, cited from earlier work
[7] = RTX versus capsaicin; cited from earlier work
[8] = test system: capsaicin desensitization of sensory fibers; settings: cited from earlier work
[9] = biological target: protein kinase C; experiment: [^3H]PDBu binding, pig DRG membranes; settings: read-out: Kd for [^3H]PDBu binding to membrane preparations
[10] = test system: mitochondrial NADH-Coenzyme Q oxidoreductase; settings: high capsaicin concentrations; cited from earlier work
[11] = 10 min, pig DRG, 30 μM, read-out: % of specific [^3H]RTX binding measured in the absence of the tested compound ± SEM

COc1cc(CCC(C)=O)ccc1O [zingerone]
activity at 30 µM [1, 11]: 92 ± 7%
inhibition of [^3H]RTX binding ([1]; pig DRG): does not inhibit or does so more weakly
activity at 30 µM ([2]; rat Gasser ggl, 30 μM): 111%

C=C(C)[C@]12C[C@@H](C)[C@@]34O[C@](Cc5ccccc5)(O[C@@H]1[C@@H]3C=C(COC(=O)Cc1ccc(O)c(OC)c1)C[C@]1(O)C(=O)C(C)=C[C@@H]41)O2 [RTX, resiniferatoxin]
Ki ([3]; rat DRG, 60 pM [^3H]RTX, 30 pM to 3 nM non-radioactive RTX, mean±SEM, 3 determinations, read-out: Ki, competition of [^3H]RTX binding): 0.11 ± 0.04 nM
loss of specific [^3H]RTX binding after addition of excess non-radioactive RTX ([1]; pig DRG membranes, by 10 min at 37° C.): complete loss of specific binding
Ki ([1]; pig DRG, mean±SEM, 4 determinations, read-out: Ki, inhibition of [^3H]RTX binding): 2.4 ± 0.3 nM
Ki ([1]; pig DRG, one site model, read-out: Ki (LIGAND analysis)): 2.2 nM
inhibition of specific [^3H]phorbol 12,13-dibutyrate binding to protein kinase C ([4]; rat DRG preparations): only at uM concentrations
time to expression of desensitization [5]: 1 to 4 h
fold more potent than capsaicin / difference in potencies for induction of hypothermia or neurogenic inflammation [6]: 10^3 -10^4 fold
fold more potent than capsaicin / difference in potencies for induction of hypothermia or neurogenic inflammation ([6]; listed as resiniferatoxin): up to 10^4 fold
potency for induction of pain relative to capsaicin [7]: comparable in potency

O=C(/C=C/C=C/c1ccc2c(c1)OCO2)N1CCCCC1 [piperine]
activity at 30 µM [1, 11]: 109 ± 2%
inhibition of [^3H]RTX binding ([1]; pig DRG): does not inhibit or does so more weakly
activity at 30 µM ([2]; rat Gasser ggl, 30 μM): 118%

N.N.N.N.N.N.N.N.N.N.N.N.N.N.[Cl-].[Cl-].[Cl-].[Cl-].[Cl-].[Cl-].[O-2].[O-2].[Ru+3].[Ru+3].[Ru+4] [ruthenium red]
inhibition of / competition for [^3H]RTX binding (words) [1]: fails to compete
inhibition of / competition for [^3H]RTX binding (words) ([1]; listed as Ruthenium red): fails to inhibit
% of specific [^3H]RTX binding measured in the absence of the tested compound ± SEM ([1]; pig DRG (by column position), 10 μM, n = 2): 109%
effect on (capsaicin) desensitization [8]: block capsaicin desensitization; also recorded: blocks the desensitization

CNC[C@H](O)c1ccc(O)c(O)c1 [epinephrine]
competition for [^3H]RTX binding sites [1]: does not compete

NC[C@H](O)c1ccc(O)c(O)c1 [norepinephrine]
competition for [^3H]RTX binding sites ([1]; pig DRG, 100 uM): does not compete

COc1cc(CNC(=O)CCCCCCC(C)C)ccc1O [dihydrocapsaicin]
inhibition of [^3H]RTX binding ([1]; pig DRG): inhibits to a similar degree as does capsaicin
% of specific [^3H]RTX binding measured in the absence of the tested compound ± SEM ([1]; pig DRG, 30 μM, 10 min): 33 ± 5%
% of specific [^3H]RTX binding measured in the absence of the tested compound ± SEM ([2]; rat Gasser ggl, 30 μM): 22%

[^3 H]phorbol 12,13-dibutyrate [[^3 H]PDBu]
Kd ([4]; rat DRG, read-out: Kd for [^3H]PDBu binding to membrane preparations): 8.5 nM
Kd [9]: 11.5 nM

N[C@@H](Cc1ccc(O)c(O)c1)C(=O)O [L-DOPA]
competition for [^3H]RTX binding sites ([1]; pig DRG, 100 uM): does not compete

CCCC(=O)O[C@@H]1[C@@H](C)[C@@]2(O)[C@@H](C=C(CO)C[C@]3(O)C(=O)C(C)=C[C@@H]23)[C@@H]2C(C)(C)[C@]12OC(=O)CCC [PDBu, phorbol 12,13-dibutyrate]
activity at 0.2 µM [3]: 106 ± 9%
activity at 0.2 µM ([1]; 10 min, read-out: % of specific [^3H]RTX binding measured in the absence of the tested compound ± SEM): 100 ± 2%
inhibition of specific [^3H]RTX binding [1]: inhibited neither

COc1cc(CNC(=O)CCCC/C=C/C(C)C)ccc1O [capsaicin]
Ki [1]: 14000 ± 2000 nM
% of specific [^3H]RTX binding measured in the absence of the tested compound ± SEM ([1]; pig DRG, 30 μM, 10 min): 28 ± 4%
% of specific [^3H]RTX binding measured in the absence of the tested compound ± SEM ([2]; gasser ganglia membranes, 30 µM): 30 ± 11
inhibition of NADH-Coenzyme Q oxidoreductase [10]: inhibited at high capsaicin concentrations

NCCc1ccc(O)c(O)c1 [dopamine]
competition for [^3H]RTX binding sites [1]: does not compete

C=C(C)[C@]12C[C@@H](C)[C@@]34O[C@](Cc5ccccc5)(O[C@@H]1[C@@H]3C=C(CO)C[C@]1(O)C(=O)C(C)=C[C@@H]41)O2 [ROA, resiniferonol 9,13,14-orthophenylacetate]
activity at 0.2 µM ([3]; rat DRG, 200 nM): 106%
activity at 2 µM ([1]; 10 min, pig DRG, 2 μM, read-out: % of specific [^3H]RTX binding measured in the absence of the tested compound ± SEM): 105 ± 6%
inhibition of specific [^3H]RTX binding [1]: inhibited neither
